Earlier results on four compounds are cited in patent US5135753A, “Method and therapeutic system for smoking cessation” (Pharmetrix Corporation, priority 1991, dated 1992).

One series has as its system skin. The following applies: average penetration rate through the skin; very approximate figures.
The test system of series [1] is smoking withdrawal symptoms. Conditions: low consistent blood levels of nicotine; craving may not be among the relieved symptoms.
The conditions of series [2]: Russell.
For series [3], the system named is nicotinic cholinergic receptors in the CNS and at autonomic ganglia. The following applies: in 10 minutes.

Consider `Clc1cccc(Cl)c1N=C1NCCN1` [clonidine], for which the skin flux with skin is 0.5 μg/cm^2.h.
For the compound `C[C@]12CC[C@@H]3c4ccc(O)cc4CC[C@H]3[C@@H]1CC[C@@H]2O` [estradiol], the skin flux in the series on skin is listed as 0.01-0.03 μg/cm^2.h.
As for `CN1CCCC1c1cccnc1` (stereo not shown) [nicotine], the “symptoms of nicotine withdrawal” value in series [1] was “relieve some of the symptoms of nicotine withdrawal”. In addition, in series [2], the “optimal steady-state blood level for nicotine replacement” value is 10 to 15 ng/mL. Besides, in the series with average adult, the lethal unit dose result is listed as “about 60 mg”. For the same compound, the “rise in nicotine blood level required to obtain postsynaptic effects” value in series [3] was “at least 10 ng/mL”. Further, in the series with skin, the skin flux was 100-300 μg/cm^2.h. Besides, the “permeability at later times” value in the series on human cadaver skin (at later times, "and more") is listed as no less than 0.4 mg/cm^2.h. For the same compound, in the series on human cadaver skin (first day of patch use), the “permeability during the first day of patch use” value is roughly 0.1 mg/cm^2.h.
`O=[N+]([O-])OCC(CO[N+](=O)[O-])O[N+](=O)[O-]` [nitroglycerin]: the skin flux with skin is 10-25 μg/cm^2.h.
